From article PMC4335062, “Data-Driven Prediction and Design of bZIP Coiled-Coil Interactions” (PLoS Computational Biology, 2015)
pKd: −log10 of the molar value. Read-outs that look alike come from different tables or passages of the source. Where no end group is shown, it is not given here.

Legend:
Test in all cases: Direct-binding FRET assay
[1] = target: T1, HLF (Homo sapiens, UniProt Q16534); settings: mean or single, read-out: Kd
T1 construct: made in house
T1 sequence (Q16534 225-288 limits assumed): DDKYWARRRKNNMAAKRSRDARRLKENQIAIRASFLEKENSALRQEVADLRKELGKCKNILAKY
Procedure, shortened: (§1)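 Acceptor protein, prepared fresh as a 4 μM stock in 1 mM TCEP-HCl, was titrated in 2-fold dilutions in 1 mM TCEP-HCl. Heterodimer Kd was obtained by ODE-based simulation, using the measured designed-peptide homodimer Kd and earlier target homodimer Kd values, and taking the best-fitting Kd.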

[2] = target: T2, FOSL1 (Homo sapiens, UniProt P15407); settings: mean or single, read-out: Kd
T2 construct: made in house
T2 sequence (P15407 105-168 limits assumed): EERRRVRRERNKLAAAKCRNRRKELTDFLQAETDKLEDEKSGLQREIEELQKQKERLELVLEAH
Procedure, shortened: as §1

[3] = target: T3, NFIL3 (Homo sapiens, UniProt Q16649); settings: mean or single, read-out: Kd
T3 construct: made in house
T3 sequence (Q16649 73-136 limits assumed): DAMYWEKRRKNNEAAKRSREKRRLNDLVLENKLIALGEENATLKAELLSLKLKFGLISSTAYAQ
Procedure, shortened: as §1

[4] = target: T4, ATF5 (Homo sapiens, UniProt Q9Y2D1); settings: read-out: Kd
T4 construct: made in house
T4 sequence (Q9Y2D1 208-271 limits assumed): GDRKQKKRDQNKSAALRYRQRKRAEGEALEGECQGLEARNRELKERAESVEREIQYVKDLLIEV
Procedure, shortened: as §1

[5] = target: T5, CREBZF (Homo sapiens, UniProt Q9NS37); settings: mean or single, read-out: Kd
T5 construct: made in house
T5 sequence (Q9NS37 204-267 limits assumed): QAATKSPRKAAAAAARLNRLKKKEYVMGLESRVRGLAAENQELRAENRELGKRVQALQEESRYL
Procedure, shortened: as §1

[6] = target: BACH2 (Homo sapiens, UniProt Q9BYV9); set-up: made in house; settings: mean or single, read-out: Kd
Procedure, shortened: as §1

[7] = target: BACH1 (Homo sapiens, UniProt O14867); set-up: made in house; settings: mean or single, read-out: Kd
Procedure, shortened: as §1

[8] = target: NFE2L1 (Homo sapiens, UniProt Q14494); set-up: made in house; settings: mean or single, read-out: Kd
Procedure, shortened: as §1

[9] = target: MAFB (Homo sapiens, UniProt Q9Y5Q3); set-up: made in house; settings: mean or single, read-out: Kd
Procedure, shortened: as §1

[10] = target: ATF6 (Homo sapiens, UniProt P18850); set-up: made in house; settings: mean or single, read-out: Kd
Procedure, shortened: as §1

[11] = target: MAF (Homo sapiens, UniProt O75444); set-up: made in house; settings: mean or single, read-out: Kd
Procedure, shortened: as §1

[12] = 4°C, C-terminal rhodamine design
[13] = 4°C, N-terminal rhodamine design
[14] = 23°C, C-terminal rhodamine design
[15] = 23°C, N-terminal rhodamine design
[16] = 37°C, C-terminal rhodamine design
[17] = 37°C, N-terminal rhodamine design

Sequence of BACH1 (O14867 557-620 limits assumed): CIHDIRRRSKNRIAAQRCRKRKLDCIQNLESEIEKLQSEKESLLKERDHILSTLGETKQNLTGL
Sequence of NFE2L1 (Q14494 654-717 limits assumed): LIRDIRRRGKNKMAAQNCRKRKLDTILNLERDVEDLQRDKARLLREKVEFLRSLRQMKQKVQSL
Sequence of BACH2 (Q9BYV9 646-709 limits assumed): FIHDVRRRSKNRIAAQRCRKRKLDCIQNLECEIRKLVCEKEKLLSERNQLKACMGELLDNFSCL
Sequence of ATF6 (P18850 306-369 limits assumed): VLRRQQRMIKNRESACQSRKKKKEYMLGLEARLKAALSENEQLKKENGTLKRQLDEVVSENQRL

Sequence: KRIAYLRQRIAELRNENHVLESRIQRMEKEKDALQQDRDHLEYEL [ATF5-d1]
- pKd [1, 12]: < 5.30
- pKd [1, 13]: < 5.30
- pKd [1, 14]: < 5.30
- pKd [1, 15]: < 6.00
- pKd [1, 16]: < 5.30
- pKd [1, 17]: < 6.00
- pKd [2, 12]: 7.08
- pKd [2, 13]: 6.57
- pKd [2, 14]: 6.16
- pKd [2, 15]: < 5.30
- pKd [2, 16]: < 6.00
- pKd [3, 12]: < 6.00
- pKd [3, 13]: < 6.00
- pKd [3, 14]: < 6.00
- pKd [3, 15]: < 6.00
- pKd [3, 16]: < 6.00
- pKd [3, 17]: < 6.00
- pKd ([4]; 4°C, C-terminal rhodamine design, mean or single): 8.96
- pKd ([4]; 4°C, N-terminal rhodamine design, repeat 3): 6.00 to 6.70
- pKd ([4]; 37°C, C-terminal rhodamine design, mean or single): 5.77
- pKd ([4]; 37°C, N-terminal rhodamine design, repeat 1): < 6.00
- pKd ([4]; 37°C, N-terminal rhodamine design, repeat 2): < 6.00
- pKd ([4]; 37°C, N-terminal rhodamine design, repeat 3): < 5.30
- pKd [5, 12]: 6.39
- pKd [5, 13]: 6.43
- pKd [5, 14]: < 5.30
- pKd [5, 15]: < 5.30
- pKd [5, 16]: < 6.00
- pKd [6, 12]: < 5.30
- pKd [6, 13]: < 6.00
- pKd [6, 14]: < 5.30
- pKd [6, 15]: < 5.30
- pKd [6, 16]: < 5.30
- pKd [6, 17]: < 5.30
- pKd [7, 12]: < 6.00
- pKd [7, 13]: < 5.30
- pKd [7, 14]: < 6.00
- pKd [7, 15]: < 5.30
- pKd [7, 16]: < 5.30
- pKd [7, 17]: < 6.00
- pKd [8, 12]: < 5.30
- pKd [8, 13]: < 6.00
- pKd [8, 14]: < 5.30
- pKd [8, 15]: < 6.00
- pKd [8, 16]: < 5.30
- pKd [8, 17]: < 6.00
- pKd [9, 12]: 6.14
- pKd [9, 13]: < 5.30
- pKd [9, 14]: < 5.30
- pKd [9, 16]: < 6.00
- pKd [9, 17]: < 5.30
- pKd [10, 12]: < 5.30
- pKd [10, 13]: < 5.30
- pKd [10, 14]: < 6.00
- pKd [10, 15]: < 5.30
- pKd [10, 16]: < 6.00
- pKd [10, 17]: < 5.30
- pKd [11, 12]: 6.10
- pKd [11, 13]: < 5.30
- pKd [11, 14]: < 5.30
- pKd [11, 15]: < 5.30
- pKd [11, 16]: < 6.00
